Source: the NIST ThermoML archive (doi:10.1021/je034188o)

Experiment: cn = amount concentration of the nth substance listed, in mol/dm3
Details: 101 kPa, Liquid

C1COCCOCCOCCOCCOCCO1 [1,4,7,10,13,16-hexaoxacyclooctadecane] + ClC(Cl)(Cl)Cl
Details	mass density [kg/m3]
293.15 K, c1 = 0.06567	1586.34
293.15 K, c1 = 0.09829	1582.87
293.15 K, c1 = 0.1283	1579.71
293.15 K, c1 = 0.1856	1573.71
293.15 K, c1 = 0.2464	1567.44
293.15 K, c1 = 0.3256	1559.42
298.15 K, c1 = 0.06528	1576.94
298.15 K, c1 = 0.09771	1573.63
298.15 K, c1 = 0.1275	1570.6
298.15 K, c1 = 0.1846	1564.86
298.15 K, c1 = 0.2451	1558.88
298.15 K, c1 = 0.3239	1551.22
303.15 K, c1 = 0.0649	1567.64
303.15 K, c1 = 0.09714	1564.39
303.15 K, c1 = 0.1268	1561.42
303.15 K, c1 = 0.1835	1555.75
303.15 K, c1 = 0.2436	1549.77
303.15 K, c1 = 0.322	1542.04
308.15 K, c1 = 0.06453	1558.35
308.15 K, c1 = 0.09662	1555.25
308.15 K, c1 = 0.1261	1552.41
308.15 K, c1 = 0.1827	1547.01
308.15 K, c1 = 0.2426	1541.36
308.15 K, c1 = 0.3209	1534.08

C1COCCOCCOCCOCCOCCO1 [1,4,7,10,13,16-hexaoxacyclooctadecane] + O
Details	mass density [kg/m3]
293.15 K, c1 = 0.0406	999.92
293.15 K, c1 = 0.07841	1001.5
293.15 K, c1 = 0.1209	1003.25
293.15 K, c1 = 0.1782	1005.57
293.15 K, c1 = 0.2079	1006.75
293.15 K, c1 = 0.2528	1008.52
293.15 K, c1 = 0.3203	1011.12
298.15 K, c1 = 0.04054	998.67
298.15 K, c1 = 0.07831	1000.21
298.15 K, c1 = 0.1207	1001.91
298.15 K, c1 = 0.1779	1004.16
298.15 K, c1 = 0.2076	1005.32
298.15 K, c1 = 0.2524	1007.03
298.15 K, c1 = 0.3198	1009.57
303.15 K, c1 = 0.04049	997.39
303.15 K, c1 = 0.0782	998.84
303.15 K, c1 = 0.1205	1000.51
303.15 K, c1 = 0.1777	1002.72
303.15 K, c1 = 0.2073	1003.84
303.15 K, c1 = 0.252	1005.51
303.15 K, c1 = 0.3193	1008
308.15 K, c1 = 0.04042	995.61
308.15 K, c1 = 0.07806	997.09
308.15 K, c1 = 0.1203	998.72
308.15 K, c1 = 0.1774	1000.89
308.15 K, c1 = 0.2069	1001.99
308.15 K, c1 = 0.2515	1003.65
308.15 K, c1 = 0.3187	1006.08

ClC(Cl)(Cl)Cl [tetrachloromethane] + C1COCCOCCOCCOCCOCCO1
c2 = 0
Details	mass density [kg/m3]
293.15 K	1593.39
298.15 K	1583.71
303.15 K	1574.2
308.15 K	1564.65
